Reference: US11179401B2, “Use of vanadium compounds for maintaining normaglycemia in a mammal” (CFM Pharma Holding BV, priority 2011, dated 2021)

Key:
male Wistar rats = experiment: Renal ischemia-reperfusion (I/R) in anesthetized rats with BMOV infusion; assay type: in vivo, rat
Experimental: Thirty two male Wistar rats (Harlan Netherlands BV, Horst, The Netherlands) with a mean body weight of 280±30 grams were used in this study. The animals were quarantined prior to start of the investigation for 1 week to permit acclimatization to their new environment and were housed in pairs in conventional cages in a light-controlled room kept at 22±1° C. with a relative humidity of 55±10%. All animals received standard laboratory rat chow and water for consumption ad libitum.
All animals were initially anesthetized with a mixture of ketamine (Nimatek, Eurovet Animal Health BV, Bladel, The Netherlands; 90 mg/kg), dexmedetomidine (Dexdomitor, Pfizer Animal Health BV, Capelle aan den IJssel, The Netherlands; 0.5 mg/kg), and atropine sulfate (Centrafarm BV, Etten-Leur, The Netherlands; 0.05 mg/kg) by intraperitoneal injection. Once anesthetized, the area between the thoracic manubrium and chin and the left flank covering the left kidney were shaved and cleaned prior to initiating the surgical procedure. During the remainder of the surgical preparation and experimental procedures, anesthesia was maintained via tracheotomy and mechanical ventilation with an inspired oxygen fraction (FiO2) of 0.4. Body temperature was maintained at 37±0.5° C. during the entire experiment. The ventilator settings were adjusted to maintain an arterial pCO2 between 35 and 40 MmHg.
For drug and fluid administration and hemodynamic monitoring, three vessels were cannulated with polyethylene catheters (outer diameter=0.9 mm; Braun, Melsungen, Germany). A catheter in the right carotid artery was connected to a pressure transducer to monitor arterial blood pressure and heart rate. The right jugular vein was cannulated for continuous infusion of Ringer's lactate (Baxter, Utrecht, The Netherlands) at a rate of 15 ml/kg/hr. The femoral artery was cannulated for withdrawing blood samples for blood gas analysis. Animals were kept under general anesthesia during all experiments and received continuous intravenous diluted ketamine or analgesic drug infusions. The left kidney was exposed, decapsulated, and immobilized in a Lucite (i.e. poly (methyl methacrylate); PMMA) custom made kidney cup via a ˜4 cm incision on the left flank. The renal artery and vein were carefully separated to preserve the surrounding nerves and adrenal gland. A perivascular ultrasonic transient time flow probe (type 0.7 RB; Transonic Systems, Ithaca, N.Y., USA) was placed around the left renal artery and connected to a flow meter (T206; Transonic Systems, Ithaca, N.Y., USA) to allow continuous measurement of renal blood flow (RBF). The left ureter was isolated, ligated, and cannulated with a polyethylene catheter (outer diameter=0.9 mm; Braun, Melsungen, Germany) for urine collection. A small piece of aluminum foil (10×10 mm) was placed on the dorsal site of the renal vein to prevent contribution of juxtaposed and underlying tissues from interfering with the phosphorescence signal in the venous pO2 measurement. After the surgical protocol (˜60 min), one optical fiber was placed 1 mm above the decapsulated kidney and another optical fiber 1 mm above the renal vein to measure oxygenation using a phosphorescence lifetime technique (20). Oxyphor G2 (Oxygen Enterprises, Philadelphia, Pa., USA; 6 mg/kg) was subsequently infused intravenously for 5 min, followed by 30 min of stabilization time.
The operation field was covered with a humidified gauze compress throughout the entire experiment to prevent drying of the exposed tissues in the surgical field. The phosphorescence lifetime measurements have been described in more details elsewhere (20). The experiment was terminated by infusion of 1 ml of 3 M potassium chloride. Finally, the kidney was removed, weighed, and processed for histological evaluation. The correct placements of the catheters were also checked postmortem. […]

critically ill patients = settings: intensive insulin therapy, cited from earlier work
[1] = BMOV 7 and 15 mg/kg infusion, 30 min ischemia, 90 min reperfusion, effect not dose-dependent
[2] = high dose BMOV (15 mg/kg) compared to low dose (7 mg/kg)
[3] = kidney immunohistochemistry after 30 min ischemia, 90 min reperfusion, vs I/R control, dose-dependent

Cc1occc(=O)c1[O-].Cc1occc(=O)c1[O-].[O]=[V+2] [BMOV, bis(maltolato)oxovanadium(IV)]
mean arterial pressure (male Wistar rats; [1]): did not affect
microvascular oxygenation in the renal cortex (male Wistar rats; [1]): significantly increased
microvascular oxygenation in the renal medulla (male Wistar rats; [1]): significantly increased
renal blood flow (male Wistar rats; [1]): did not affect
renal oxygen delivery (male Wistar rats; [1]): did not affect
renal oxygen utilization efficiency (VO2/Tna+) (male Wistar rats; [1]): increased
renal hemodynamics (male Wistar rats; FIG. 2, 30 min ischemia, 90 min reperfusion): did not affect
NGAL levels (male Wistar rats; [2]): significantly lower
iNOS expression (male Wistar rats; [2]): significantly lower
inflammatory activation (IL-6, iNOS expression, MPO-stained leukocytes) (male Wistar rats; [3]): significantly decreased
renal injury (biomarkers NGAL, L-FABP) (male Wistar rats; [3]): significantly decreased

insulin: intensive insulin therapy in critically ill ICU patients, literature
overall ICU mortality (critically ill patients; reduced from 8%): 4.6%
ICU mortality among patients requiring more than five days intensive care (critically ill patients; reduced from 20.2%): 10.6%
